How the values were obtained:
[1] = test system: RINm5F cells; assay: Serum-deprived culture of RINm5F cells (viability, ROS); type: cell-based, rat; conditions: dose-dependent 0.1 μM to 20 μM
Experimental: Islets were isolated from heterozygous human islet amyloid polypeptide transgenic (hIAPP^+/−)FVB/N mice (Jackson Laboratory, Bar Harbor, ME, USA), […] mice (Orientbio, Sungnam, Korea), and cynomolgus monkeys (Macaca fascicularis; Orientbio, Sungnam, Korea). For additional in vitro studies, rat insulinoma cells (RINm5F cells) were treated with or without Compound 1 during culture under tert-butyl hydroperoxide (tBHP) exposure or serum deprivation condition. RINm5F cells were suspended in DMEM medium (Gibco, Grand Island, NY, USA) containing 100 IU/mL penicillin and 100 μg/mL streptomycin, and cultured at 37° C. in a fully humidified 5% CO2 atmosphere. All experimental protocols in this study were approved by the Institutional Animal Care and Use Committee (IACUC) of Samsung Biomedical Research Institute.

[2] = test system: islets from hIAPP+/− FVB/N mice; assay: Intracellular free radical detection and lipid peroxidation after islet isolation; type: cell-based, mouse; conditions: 20 μM Compound 1 during islet isolation, vs control islets
Experimental: (§1) Mouse islets were isolated from 10- to 12-week-old hIAPP^+/− and C57BL/6 mice as described previously. Briefly, 0.8 mg/mL of collagenase P (Roche, Indianapolis, IN, USA) in Hank's buffered saline solution (HBSS, Sigma-Aldrich, St. Louis, MO, USA) with or without 20 μM Compound 1 were infused into the common bile duct for mouse pancreas digestion. Islets were purified from the digested pancreas using a Ficoll (Biochrom, Berlin, Germany) gradient and washed several times with 1 xHBSS. Isolated islets were cultured while free-floating in 10 mL of RPMI 1640 (Gibco, Grand Island, NY, USA). The medium was supplemented with 10% heat-inactivated FBS (fetal bovine serum) at 37° C. and 5% CO2 incubation prior to the ex vivo and in vivo studies.
The oxidative stress levels in hIAPP^+/− mouse islets were determined right after islet isolation and after ex vivo culture of isolated islets. The oxidative stress of the islets was quantified using a fluorescence-based intracellular ROS detection method and by estimating the concentration of malondialdehyde (MDA), a by-product of lipid peroxidation. The formation of total ROS, superoxide ion and nitric oxide was determined using a reactive oxygen species detection kit (ENZ-51011, Enzo Life Sciences, Farmingdale, New York, USA). The ROS content was measured by levels of DHR123 fluorescence. The kit was applied according to the manufacturer's protocol.

[3] = test system: islet grafts in STZ-induced diabetic hIAPP+/− FVB/N mice; assay: Amyloid accumulation in islet grafts (thioflavin S staining); type: in vivo, mouse; conditions: islets cultured 72 hours with Compound 1, vs control group; FIG. 7G
Experimental: A marginal mass renal subcapsular islet transplantation model was used to assess the in vivo islet function of hIAPP^+/− mice. To induce diabetes, 180 mg/kg of streptozotocin (STZ, Sigma-Aldrich) was administered to 8- to 10-week-old FVB/N mice. Mice were considered to have diabetes when two consecutive blood glucose level readings were higher than 300 mg/dL. Equal amounts (400 IEQ of islets per recipient) of islets isolated from hIAPP^+/− mice were allocated to the following two groups: culture medium supplemented with 0.625% BSA (BSA group) and 0.625% BSA plus Compound 1 (BSA+Compound 1 group) to evaluate the combined effect of Compound 1 on islet mass and function during ex vivo culture. After culture for 72 hours, islets were transplanted into the renal subscapular space of diabetic hIAPP^+/− mice. The IE number was calculated using the Ricordi algorithm by classifying islets according to their diameter. After islet transplantation, non-fasting blood glucose levels were measured three times a week for the first 2 weeks and twice a week for the last 2 weeks. […]

[4] = test system: STZ-induced diabetic hIAPP+/− FVB/N mice; assay: Marginal mass renal subcapsular islet transplantation, islets isolated with or without Compound 1; type: in vivo, mouse
Experimental: as §1
A marginal mass renal subcapsular islet transplantation model was used to assess the in vivo islet function of hIAPP^+/− mice. To induce diabetes, 180 mg/kg of streptozotocin (STZ, Sigma-Aldrich) was administered to 8- to 10-week-old FVB/N mice. Mice were considered to have diabetes when two consecutive blood glucose level readings were higher than 300 mg/dL. Equal amounts (400 IEQ of islets per recipient) of islets isolated from hIAPP^+/− mice were allocated to the following two groups: culture medium supplemented with 0.625% BSA (BSA group) and 0.625% BSA plus Compound 1 (BSA+Compound 1 group) to evaluate the combined effect of Compound 1 on islet mass and function during ex vivo culture. After culture for 72 hours, islets were transplanted into the renal subscapular space of diabetic hIAPP^+/− mice. The IE number was calculated using the Ricordi algorithm by classifying islets according to their diameter. After islet transplantation, non-fasting blood glucose levels were measured three times a week for the first 2 weeks and twice a week for the last 2 weeks.
At 4 weeks after transplantation, the transplantation site on the kidney of mouse were removed and embedded in paraffin. Immunohistochemical staining is briefly explained in the following. After deparaffinization, 4-μm tissue sections were stained with the polyclonal guinea pig anti-insulin antibody (1:1000, A0546, DAKO, Denmark), glucacon (1:500, ab92517, abcam, United Kingdom) and amyloid (1:2500, #44-344, Invitrogen). Stained slides were observed using an Olympus BX40 light microscope (Olympus, Japan) with […] numeric aperture and ×40/0.75 numeric aperture objectives. Photographic images were collected with a digital camera (Olympus DP50) and analyzed using the Image-Pro Plus 5.1 software.
For quantification of the DAB-labeled β-cells, all slides were imaged at 10× on a Vectra 3.0 automated quantitative pathology imaging system and analyzed using inForm software (all from Perkin-Elmer, Waltham, MA, USA). The transplanted renal tissue sections were scanned for image acquisition and then to set the transplanted tissue segmentation, a number of representative regions of transplanted islet cells and regions to be excluded from the analysis such as renal tissues were examined by learn-by-example interface. For the β-cell segmentation, a spectral library was used to identify the hematoxylin-stained nuclei and the DAB-stained cytoplasm (β-cells) within the transplanted tissue. With these training sets, the algorithm for identifying only the DAB-stained cells in the transplanted tissue was verified. All the captured 10× images were analyzed, and the DAB-stained transplanted β-cells were counted.

[5] = test system: islets from hIAPP+/− FVB/N mice; assay: Glucose-stimulated insulin secretion (GSIS) assay after islet isolation; type: cell-based, mouse; conditions: 20 μM Compound 1 during islet isolation, vs non-treated group; FIG. 1E
Experimental: as §1
After hand-picking and washing with PBS, islets were seeded on 12-mm diameter insert wells (Merck Millipore, Billerica, MA, USA) with 10 islets per well, and preincubated with 60 mg/dL glucose in Kreb's-Ringer buffer (KRB: 129 mM NaCl, 4.8 mM KCl, 2.5 mM CaCl2, 1.2 mM KH2PO4, 5 mM NaHCO3, 10 mM HEPES, and 0.2% BSA) for […] at 37° C. After washing, islets were incubated with 300 mg/dL glucose-KRB for 1 hour, followed by additional incubation with 60 mg/dL glucose-KRB for 1 hour. Insulin release into the supernatant by the mouse islets was measured by ELISA (ALPCO, Salem, NH, USA) and a multiplex kit (Merck Millipore), respectively.

In the case of `O=S1(=O)CCN(Cc2cc(NC3CCOCC3)c3[nH]c(-c4ccccc4)cc3c2)CC1` [Compound 1], the relative cell viability ([1]; serum deprivation, FIG. 4C) is reported as “significantly increased”, the “serum deprivation-induced ROS” value ([1]; serum-deprived culture, FIG. 4E) is reported as “decreased” and the “ROS contents in islets” value ([2]; FIG. 1C) is reported as “markedly decreased”. For the same molecule, the “oxidative stress levels in islets” value ([2]; FIG. 1D) was “markedly decreased”, the “proportion of accumulation of amyloid in sections of islet grafts” value [3] was “significantly reduced” and the diabetes reversal rate ([4]; islets isolated with Compound 1, vs control group, FIG. 3C) was “better”. The “proportion of insulin positive area in the grafted tissue” value ([4]; islets isolated with Compound 1, vs control group, FIG. 3F) was “greater”, the “glucose levels during intraperitoneal glucose tolerance test (IPGTT)” value ([4]; islets isolated with Compound 1, vs control group, FIGS. 3D, 3E) was “better” and the post-transplant glucose levels ([4]; islets isolated with Compound 1, vs non-treated group, FIG. 3B) was “markedly lower”. The “glycemia after removal of the grafted kidney” value ([4]; islets isolated with Compound 1, FIG. 3B) was “regain of hyperglycemia” and the “stimulation index in GSIS assay” value [5] was “comparable values between two groups”.

Source: patent publication US12677825B2, “Composition for protecting islet transplantation” (LG CHEM, LTD., priority 2020, dated 2026)
